Measurements from US20260248972A1, “DUAL RECEPTOR TARGETING RADIOLIGANDS AND USES THEREOF RELATED APPLICATIONS” (priority 2022, published 2026).
Where two headings read alike, the source gives them in different places. Blank lines part the entries; values can stand above or below the compound they belong to.

Columns and labels:
CCK2R = target: T1, CCK2R (Rattus norvegicus, UniProt P30553); assay: Competitive cell-binding assay on AR42J cells with 125I-C3 as competitive ligand; conditions: for IC50: AR42J cells, 125I-C3 competitive ligand, 37° C. 1 h, read-out: CCK2R/IC50
T1 construct: host or cells: AR42J cells
T1 sequence (P30553 1-452): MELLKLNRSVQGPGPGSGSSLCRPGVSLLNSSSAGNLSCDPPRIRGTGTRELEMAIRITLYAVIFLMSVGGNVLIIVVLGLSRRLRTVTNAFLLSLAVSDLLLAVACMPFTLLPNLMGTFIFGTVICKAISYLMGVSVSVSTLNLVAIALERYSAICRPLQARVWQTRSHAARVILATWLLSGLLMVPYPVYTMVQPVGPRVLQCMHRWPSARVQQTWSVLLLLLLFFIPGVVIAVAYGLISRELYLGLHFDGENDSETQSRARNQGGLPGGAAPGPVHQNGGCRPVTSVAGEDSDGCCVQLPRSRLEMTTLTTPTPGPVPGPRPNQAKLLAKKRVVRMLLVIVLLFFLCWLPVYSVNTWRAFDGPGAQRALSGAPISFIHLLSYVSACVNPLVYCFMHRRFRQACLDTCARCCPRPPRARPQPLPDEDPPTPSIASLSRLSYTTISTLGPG
Protocol: (§1) AR42J cells (ATCC) were maintained in RPMI-1640 medium (Gibco) supplemented with 15% fetal bovine serum (Gibco) and 1% penicillin-streptomycin (BI) at 37° C. in a humidified incubator with 5% CO2. The culture medium was replaced with fresh medium every 2-3 days. Experiments were performed with cells at 70-80% confluence.
(§2) Binding Affinity Tested by Using ^125I-Labeled Competitive Ligands.
(§3) The binding affinities of test compounds were determined by a competitive cell-binding assay using ^125I-C1 and ^125I-C3 as the competitive ligand. The suspended AR42J cells at a density of 1~3×10^6 cells/mL in binding buffer (RPMI-1640 medium supplemented with 0.25% bovine serum albumin) were transferred to a MultiScreen-DV Filter Plate (Millipore) with 100 μL per well except the blank group where the binding buffer was used instead. The cells were then incubated with ^125I-C1 and ^125I-C3 (0.02 μCi/well) in the presence of increasing concentrations (0-10000 nM) of test compounds at 37° C. for 1 h (n=3). The final volume in each well was maintained at 200 μL and insufficient volume was adjusted by the binding buffer. After the 1 h incubation, unbound ^125I-competitive ligands were removed by filtration using a Multiscreen vacuum manifold (Millipore) followed by rinses with the binding buffer (3 times). The filters were collected, and their radioactivity were individually measured by γ counter (2480 WIZARD2, PerkinElmer). The best-fit IC50value (inhibitory concentration when 50% of the bound ^125I-C1 and ^125l I-C3 on cells were displaced) of test compounds were calculated by fitting the data with nonlinear regression using GraphPad Prism 8.0.1.

SSTR2 = target: T2, SSTR2 (Rattus norvegicus, UniProt P30680); assay: Competitive cell-binding assay on AR42J cells with 125I-C1 as competitive ligand; conditions: for IC50: AR42J cells, 125I-C1 competitive ligand, 37° C. 1 h, read-out: SSTR2/IC50
T2 construct: host or cells: AR42J cells
T2 sequence (P30680 whole entry): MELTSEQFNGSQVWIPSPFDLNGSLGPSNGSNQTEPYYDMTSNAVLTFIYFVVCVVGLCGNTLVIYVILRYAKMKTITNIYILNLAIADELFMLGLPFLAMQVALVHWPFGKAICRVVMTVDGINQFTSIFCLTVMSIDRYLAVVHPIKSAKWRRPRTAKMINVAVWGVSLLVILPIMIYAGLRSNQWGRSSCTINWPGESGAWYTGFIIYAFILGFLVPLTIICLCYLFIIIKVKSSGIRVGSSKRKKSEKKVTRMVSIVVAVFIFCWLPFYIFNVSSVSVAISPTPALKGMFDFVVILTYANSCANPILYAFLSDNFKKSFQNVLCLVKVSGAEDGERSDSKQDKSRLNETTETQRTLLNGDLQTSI
Protocol: as §1, §2, §3

[1] = Biodistribution study of 177Lu-labeled compounds in AR42J tumor-bearing mice; conditions: BALB/c nude, mouse, in vivo, iv, total radioactivity, 177Lu-labeled; for tissue to tissue ratio at 24 h: 24 hours after dosing; for tissue uptake at 24 h: 24 hours after dosing (Table 5)
Summary of the method: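 Compounds labelled with ^177Lu in 0.5 M NaOAc pH 4.5 at 95° C for 15 min, then used directly or diluted in PBS with 3 mg/mL ascorbate. BALB/c nude mice bore subcutaneous AR42J flank xenografts (0.05-0.50 g). Organs excised at 4, 24 and 72 h post-injection and γ-counted for % ID and % ID/g.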

IC50 (CCK2R): 1.4 nM | Relative Binding Affinity CCK2R (CCK2R; based on mean IC50, C-2 = 1.00): 12.1 | IC50 (SSTR2): 0.781 nM | Relative Binding Affinity SSTR2 (SSTR2; based on mean IC50, C-1 = 1.00): 3.60
SMILES: C[C@@H](O)C(NC(=O)[C@@H]1CSSC[C@H](NC(=O)[C@@H](Cc2ccccc2)NC(=O)COCCOCCNC(=O)[C@H](CCCCNC(=O)CC[C@H](NC(=O)CNC(=O)c2cccc(NC(=O)N[C@@H]3CN(C4CCCCC4)c4ccccc4N(CC(=O)C(C)(C)C)C3=O)c2)C(=O)O)NC(=O)COCCOCCNC(=O)CCC(C(=O)O)N2CCN(CC(=O)O)CCN(CC(=O)O)CCN(CC(=O)O)CC2)C(=O)N[C@@H](Cc2ccc(O)cc2)C(=O)N[C@H](Cc2c[nH]c3ccccc23)C(=O)N[C@@H](CCCCN)C(=O)N[C@@H]([C@@H](C)O)C(=O)N1)C(=O)O (stereo in doubt) [Compound I-20, DOTAGA- OEG- K(-gE- G- Z360)- OEG- f[CYwKTC]T- OH]

Relative Binding Affinity CCK2R (CCK2R; based on mean IC50, C-2 = 1.00): 71.1 | Relative Binding Affinity SSTR2 (SSTR2; based on mean IC50, C-1 = 1.00): 0.29
SMILES: C[C@@H](O)[C@H](NC(=O)[C@@H]1CSSC[C@H](NC(=O)[C@@H](Cc2ccccc2)NC(=O)COCCOCCNC(=O)[C@H](CCCCNC(=O)CC[C@H](NC(=O)CNC(=O)c2cccc(NC(=O)N[C@@H]3CN(C4CCCCC4)c4ccccc4N(CC(=O)C(C)(C)C)C3=O)c2)C(=O)O)NC(=O)COCCOCCNC(=O)COCCOCCNC(=O)CC[C@H](NC(=O)CC[C@H](NC(=O)CN2CCN(CC(=O)O)CCN(CC(=O)O)CCN(CC(=O)O)CC2)C(=O)O)C(=O)O)C(=O)N[C@@H](Cc2ccc(O)cc2)C(=O)N[C@H](Cc2c[nH]c3ccccc23)C(=O)N[C@@H](CCCCN)C(=O)N[C@@H]([C@@H](C)O)C(=O)N1)C(=O)O [Compound I-15, DOTA-gE-gE-OEG-OEG-K(-gE-G-Z360)-OEG-f[CYwKTC]T-OH]

Relative Binding Affinity CCK2R (CCK2R; based on mean IC50, C-2 = 1.00): 275 | Relative Binding Affinity SSTR2 (SSTR2; based on mean IC50, C-1 = 1.00): 0.78
SMILES: C[C@@H](O)[C@H](NC(=O)[C@@H]1CSSC[C@H](NC(=O)[C@@H](Cc2ccccc2)NC(=O)COCCOCCNC(=O)[C@H](CCCCNC(=O)CC[C@H](NC(=O)CNC(=O)c2cccc(NC(=O)N[C@@H]3CN(C4CCCCC4)c4ccccc4N(CC(=O)C(C)(C)C)C3=O)c2)C(=O)O)NC(=O)CC[C@H](NC(=O)CC[C@H](NC(=O)CN2CCN(CC(=O)O)CCN(CC(=O)O)CCN(CC(=O)O)CC2)C(=O)O)C(=O)O)C(=O)N[C@@H](Cc2ccc(O)cc2)C(=O)N[C@H](Cc2c[nH]c3ccccc23)C(=O)N[C@@H](CCCCN)C(=O)N[C@@H]([C@@H](C)O)C(=O)N1)C(=O)O [Compound I-10, DOTA-gE-gE-K(-gE-G-Z360)-OEG-f[CYwKTC]T-OH]

Relative Binding Affinity CCK2R (CCK2R; based on mean IC50, C-2 = 1.00): 17.3 | Relative Binding Affinity SSTR2 (SSTR2; based on mean IC50, C-1 = 1.00): 0.16
SMILES: C[C@@H](O)[C@H](NC(=O)[C@@H]1CSSC[C@H](NC(=O)[C@@H](Cc2ccccc2)NC(=O)COCCOCCNC(=O)COCCOCCNC(=O)[C@H](CCCCNC(=O)CCC(C(=O)O)N2CCN(CC(=O)O)CCN(CC(=O)O)CCN(CC(=O)O)CC2)NC(=O)COCCOCCNC(=O)COCCOCCNC(=O)CC[C@H](NC(=O)CC[C@H](NC(=O)c2cccc(NC(=O)N[C@@H]3CN(C4CCCCC4)c4ccccc4N(CC(=O)C(C)(C)C)C3=O)c2)C(=O)O)C(=O)O)C(=O)N[C@@H](Cc2ccc(O)cc2)C(=O)N[C@H](Cc2c[nH]c3ccccc23)C(=O)N[C@@H](CCCCN)C(=O)N[C@@H]([C@@H](C)O)C(=O)N1)C(=O)O (some centres unmarked) [Compound I-17, (Z360)- gE- gE- OEG- OEG- K(DOTAGA)- OEG- OEG- f[CYwKTC]T- OH (]

More lines, now with the values behind:

SMILES: C[C@@H](O)[C@H](NC(=O)[C@@H]1CSSC[C@H](NC(=O)[C@@H](Cc2ccccc2)NC(=O)[C@H](CCCCNC(=O)c2cccc(NC(=O)N[C@@H]3CN(C4CCCCC4)c4ccccc4N(CC(=O)C(C)(C)C)C3=O)c2)NC(=O)CN2CCN(CC(=O)O)CCN(CC(=O)O)CCN(CC(=O)O)CC2)C(=O)N[C@@H](Cc2ccc(O)cc2)C(=O)N[C@H](Cc2c[nH]c3ccccc23)C(=O)N[C@@H](CCCCN)C(=O)N[C@@H]([C@@H](C)O)C(=O)N1)C(=O)O [Compound I-34, DOTA-K(Z360)-f[CYwKTC]T-OH]
Relative Binding Affinity CCK2R (CCK2R): 5.9 | Relative Binding Affinity SSTR2 (SSTR2): 1.49 | tissue to tissue ratio at 24 h ([1]; T/K Tumor/Kidney ratio): 3.7 | tissue to tissue ratio at 24 h ([1]; T/L Tumor/Liver ratio): 1.1 | tissue to tissue ratio at 24 h ([1]; T/P Tumor/Pancreas ratio): 7 | tissue to tissue ratio at 24 h ([1]; T/Sp Tumor/Spleen ratio): 2.4 | tissue to tissue ratio at 24 h ([1]; T/St Tumor/Stomach ratio): 4 | tissue uptake at 24 h ([1]; uptake Kidney): 6.1 %ID/g | tissue uptake at 24 h ([1]; uptake Liver): 19.8 %ID/g | tissue uptake at 24 h ([1]; uptake Pancreas): 3.2 %ID/g | tissue uptake at 24 h ([1]; uptake Spleen): 9.5 %ID/g | tissue uptake at 24 h ([1]; uptake Stomach): 5.7 %ID/g | tissue uptake at 24 h ([1]; uptake Tumor): 22.7 %ID/g

SMILES: C[C@@H](O)[C@H](NC(=O)[C@@H]1CSSC[C@H](NC(=O)[C@@H](Cc2ccccc2)NC(=O)[C@H](CCCCNC(=O)COCCOCCNC(=O)COCCOCCNC(=O)COCCOCCNC(=O)c2cccc(NC(=O)N[C@@H]3CN(C4CCCCC4)c4ccccc4N(CC(=O)C(C)(C)C)C3=O)c2)NC(=O)CN2CCN(CC(=O)O)CCN(CC(=O)O)CCN(CC(=O)O)CC2)C(=O)N[C@@H](Cc2ccc(O)cc2)C(=O)N[C@H](Cc2c[nH]c3ccccc23)C(=O)N[C@@H](CCCCN)C(=O)N[C@@H]([C@@H](C)O)C(=O)N1)C(=O)O [Compound I-46, DOTA-K(-OEG-OEG-OEG-Z360)-f[CYwKTC]T-OH]
Relative Binding Affinity CCK2R (CCK2R): 50.2 | Relative Binding Affinity SSTR2 (SSTR2): 0.43

SMILES: C[C@@H](O)[C@H](NC(=O)[C@@H]1CSSC[C@H](NC(=O)[C@@H](Cc2ccccc2)NC(=O)COCCOCCNC(=O)[C@H](CCCCNC(=O)CC[C@H](NC(=O)CNC(=O)c2cccc(NC(=O)NC3CN(C4CCCCC4)c4ccccc4N(CC(=O)C(C)(C)C)C3=O)c2)C(=O)O)NC(=O)COCCOCCNC(=O)COCCOCCNC(=O)[C@@H](N)CCCCNC(=O)[C@@H](N)CCCCNC(=O)CN2CCN(CC(=O)O)CCN(CC(=O)O)CCN(CC(=O)O)CC2)C(=O)N[C@@H](Cc2ccc(O)cc2)C(=O)N[C@H](Cc2c[nH]c3ccccc23)C(=O)N[C@@H](CCCCN)C(=O)N[C@@H]([C@@H](C)O)C(=O)N1)C(=O)O (some centres unmarked) [Compound I-65, DOTA-eK-eK-OEG-OEG-K(-gE-G-Z360)-OEG-f[CYwKTC]T-OH]
IC50 (CCK2R): 9.4 nM | Relative Binding Affinity CCK2R (CCK2R; based on mean IC50, C-2 = 1.00): 1.8 | IC50 (SSTR2): 0.136 nM | Relative Binding Affinity SSTR2 (SSTR2; based on mean IC50, C-1 = 1.00): 20.7
